From patent US20250319067A1, “Improved Pharmacokinetics of Tryptamine Prodrugs” (Reunion Neuroscience, Inc., priority 2023, published 2025)

What was measured:
[1] = GLP 14-day extended single SC dose toxicity study in rats; settings: Sprague Dawley, rat, plasma, sc, 10 mg/kg
Protocol: In a GLP 14-day extended single SC dose toxicity study in rats, doses of 0 (PBS), 10, 25 and 75 mg/kg were evaluated. Animals were necropsied on Study Day 2 and Day 14 (also referred to as Recovery Day 13) post-dosing.
A non-GLP dose range study was performed in the dog in order to determine an MTD. Single SC doses of 7.5, 15 and 20 mg/kg were evaluated.

in vivo [2] = settings: for half-life: male, cynomolgus monkey, plasma; for mean terminal half-life: monkey
Protocol: Two male cynomolgus monkeys were administered 3 treatments in a crossover study design (Calvert Laboratories, Inc, Scott Township, PA; QPS, LLC, Newark, DE, USA). In treatment 1, RE104 was administered as an IV bolus dose at 1 mg/kg. In treatment 2, RE104 was administered as an SC injection at 0.5 mg/kg, and in treatment 3, RE104 was administered PO at 5 mg/kg, with all dosing formulations prepared in phosphate buffered saline.

[3] = Plasma protein binding, animal plasma; type: in vitro ADME; settings: animal plasma proteins
[4] = Plasma protein binding, human plasma; type: in vitro ADME; settings: human plasma proteins, 1 to 20 PM; read-out: plasma protein binding (bound)
[5] = Metabolite profiling in monkey plasma after SC RE104; type: in vivo, cynomolgus monkey; settings: pooled plasma 0 to 12 hours post dose, SC 0.5 mg/kg RE104
Description: Blood samples were centrifuged to obtain plasma.

healthy females = assay: Phase 1 FIH study: modified Drug Effect Questionnaire (DEQ-High); type: in vivo, human; settings: plasma concentration below 40 ng/mL
Protocol: (§1) The study was a double-blind, randomized, placebo-controlled Phase 1 single ascending dose study in up to 6 cohorts in healthy females. Eligibility was assessed during a screening period of up to 28 days prior to enrollment. For the treatment period, subjects were admitted to the clinical research unit (CRU) one day prior to the dosing (Day −1). On Day 1, all subjects will received the assigned SC dose of RE104 HCl or placebo in a fed state (after domiciling overnight and consuming a planned evening meal on Day −1 and morning meal on Day 1 while at the CRU). Subjects were allowed to select snacks from a planned menu from 4 hours following dosing. Subjects were discharged from the clinic on Day 2 (−24 hours post-dose) after all required study procedures were completed and if deemed medically fit. Subjects returned to the clinic on Day 10 (±2 days) for a follow up visit.
The Drug Effect Questionnaire (DEQ) Feel/High is widely used in studies of acute subjective response to a variety of substances, to assess two key aspects of subjective experience: (1) the strength of substance effects and (2) desirability of substance effects (Morean et al., 2013). The modified DEQ assesses the extent to which subjects (1) feel any substance effect(s) and (2) feel high. This version of the DEQ includes the following items: “Do you feel a drug effect right now?” (FEEL); “Are you high right now?” (HIGH). FIG. 2 sets out the modified DEQ that was used.
The modified DEQ was used as an 11-point numeric rating scale (0-10) administered by a qualified staff member. The subjects were asked to verbally respond to indicate how strongly they feel the drug effect and how high they feel on the scale of 0-10 after being administered the study drug (Kollltveit et al., 2020).

[6] = Phase 1 FIH study: plasma pharmacokinetics (LC-MS/MS); type: in vivo; settings: female, plasma, human; for half-life: read-out: t1/2, mean (converted)
Protocol: as §1
The concentrations of RE104 and isoprocin in plasma were determined using a validated Liquid chromatography tandem mass spectrometry (LC-MS/MS) assay.

in vivo [7] = settings: male, beagle, dog, plasma, po, 5 mg/kg
Protocol: Two consecutive doses were separated by z7 days. Plasma samples were analyzed using an LC-MS/MS method (lower limit of quantification of 1.00 ng/mL for both analytes).
Pharmacokinetic parameters were calculated using Phoenix WinNonlin, version 6.3 or 8.2 (Certara, Princeton, NJ, USA).
For dog PK assessments, approximately 0.5 mL of blood was collected via superficial vein before dose and at 5 (for IV and SC injections only), 15, and 30 minutes and 1, 2, 4, 8, 16, 24, 48, and 72 hours post dose into tubes containing K2EDTA with 10 mM Dichlorvos as the anticoagulant and stabilizer, respectively.

[8] = in PBS; cited from earlier work
humans = settings: human, cited from earlier work
[9] = system: primary human hepatocytes; assay: Metabolite profiling in plated human hepatocytes; settings: 1 μM, pooled plated human hepatocytes
Protocol: The formation of metabolites was monitored at 0, 4, 8, and 24 hours, respectively. […] Samples for positive and negative controls were determined at 0, 8, and 24 hours, respectively. RE104 and its metabolites were identified and profiled using ultrahigh-performance liquid chromatography (Supplemental Methods).
The quenched samples were pipetting mixed, harvested, and stored at −70° C. or lower until liquid chromatography tandem mass spectrometry analysis. […] The plated human hepatocyte incubation samples were frozen at ≤−70° C. or lower immediately and thawed to room temperature before sample processing. A 500-μL aliquot of each sample was transferred to matrix tubes (1.4 mL), followed by the addition of 500-μL mixed solvent acetonitrile:methanol:for mic acid (50:50:0.1, v/v/v). The resulting mixtures were vortex mixed for 2 minutes and centrifuged at 3000 rpm for 10 minutes. The supernatants from the triplicate incubations were pooled to generate the pooled samples (1.5 mL/each) for the LC-MS analysis.
For all metabolite identification and profiling experiments, RE104 and its metabolites were identified and profiled by UHPLC in a Shimadzu Nexeran™ UHPLC system coupled with a high-resolution mass spectrometer SCIEX 6600 Triple TOF®. Mass spectrometry analysis was carried out by using an electrospray ionization source operating in positive ion mode with full-scan TOF MS and MS/MS modes. […]

[10] = Metabolite profiling in rat plasma after SC RE104; settings: 0- to 10-hour pooled plasma, SC 10, 25, or 75 mg/kg RE104
Protocol: Metabolite profiling and identification was performed using rat, dog, and nonhuman primate plasma samples after a single SC injection of RE104 (QPS, LLC, Newark, DE, USA).
Blood samples were centrifuged to obtain plasma. Plasma samples for rat and dog studies were pooled across time points to 1 sample per dose and sex separately; plasma samples from monkeys were pooled to generate 1 combined sample.
Metabolite profiling and identificationFor experiments performed in rats, blood samples were collected before dose and at 15 minutes, 30 minutes, and 1, 2, 4, 6, and 10 hours after dose. Blood samples from dogs were collected before dose and at 5 minutes, 30 minutes, and 1, 2, 4, 8, 12, and 24 hours after dose. Monkey blood samples were collected before dose and at 5 minutes, 15 minutes, 30 minutes, and 1, 1.5, 2, 4, 8, and 12 hours after dose. […]
The percent of RE104 and its metabolites in relation to the total area of compound-related material was obtained by integration of the extracted ion chromatogram peaks on the full-scan mass-chromatograms. The percent of peak area for each component relative to the total peak area was determined by using the following formula: Component % peak area=(peak area of component ×100%/total integrated peak area of compound-related material).

[11] = biological target: human recombinant 5-HT2A receptors (Homo sapiens, UniProt P28223); assay: 5-HT2A agonist radioligand binding assay ([125I]DOI)
human recombinant 5-HT2A receptors, sequence (P28223 whole entry): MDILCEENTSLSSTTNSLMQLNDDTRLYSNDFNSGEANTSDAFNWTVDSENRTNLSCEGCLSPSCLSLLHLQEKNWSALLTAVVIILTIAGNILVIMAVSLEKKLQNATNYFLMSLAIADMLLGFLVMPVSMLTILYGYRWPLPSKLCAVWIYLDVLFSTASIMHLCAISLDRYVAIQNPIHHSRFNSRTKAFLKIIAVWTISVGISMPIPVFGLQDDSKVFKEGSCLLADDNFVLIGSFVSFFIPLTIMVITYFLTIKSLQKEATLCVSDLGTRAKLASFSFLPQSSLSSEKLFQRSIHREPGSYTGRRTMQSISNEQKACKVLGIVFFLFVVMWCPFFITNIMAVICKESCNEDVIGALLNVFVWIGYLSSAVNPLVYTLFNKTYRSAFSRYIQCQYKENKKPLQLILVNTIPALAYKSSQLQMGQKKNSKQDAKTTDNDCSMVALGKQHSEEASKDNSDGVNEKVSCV
Protocol: (§2) Increasing concentrations of RE104 were incubated with 0.2 nM [^125I]DOI in CHO cell cultures expressing human recombinant 5-HT2B receptors.
(§3) Radioligand concentration was measured by scintillation counting; compound binding was calculated as percent inhibition of the binding of [^125I]DOI. In agonist activity assays, test concentrations of RE104 were incubated with HEK-293 cells expressing human recombinant 5-HT2A receptors; IP1 production was detected using homogeneous time-resolved fluorescence. Activation was calculated as a percentage of the response to the positive control (10 μM 5-HT).
(§4) Inhibition constants were calculated by using the Cheng-Prusoff equation Ki=IC50/(1+L/KD), where L=radioligand concentration and KD=radioligand affinity for the receptor (determined with a Scatchard plot). In the functional activity assay test concentrations of RE104 were 10 nM, 30 nM, 100 nM, 300 nM, 1 μM, 3 μM, 10 μM, and 30 μM. EC50 and IC50 values were determined by nonlinear regression analysis of the concentration-response curves generated with mean replicate values using Hill equation curve fitting.

[12] = biological target: human recombinant 5-HT2B receptors (Homo sapiens, UniProt P41595); assay: 5-HT2B agonist radioligand binding assay ([125I]DOI)
human recombinant 5-HT2B receptors, sequence (P41595 whole entry): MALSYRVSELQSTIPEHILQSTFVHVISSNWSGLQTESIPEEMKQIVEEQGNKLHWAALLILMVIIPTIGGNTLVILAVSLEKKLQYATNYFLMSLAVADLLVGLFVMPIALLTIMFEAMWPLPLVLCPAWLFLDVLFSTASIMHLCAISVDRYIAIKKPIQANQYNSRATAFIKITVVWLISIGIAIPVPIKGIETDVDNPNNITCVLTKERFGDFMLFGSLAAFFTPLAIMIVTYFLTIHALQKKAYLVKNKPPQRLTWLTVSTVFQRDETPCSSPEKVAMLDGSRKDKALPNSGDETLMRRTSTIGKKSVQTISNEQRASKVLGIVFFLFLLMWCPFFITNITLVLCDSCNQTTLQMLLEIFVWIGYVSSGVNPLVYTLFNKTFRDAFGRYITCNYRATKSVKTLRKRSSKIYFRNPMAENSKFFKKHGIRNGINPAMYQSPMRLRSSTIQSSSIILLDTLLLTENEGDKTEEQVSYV
Protocol: as §2, §3, §4

[13] = GLP 14-day extended single SC dose toxicity study in dogs; settings: beagle, dog, plasma, sc, 8 mg/kg
[14] = Rat PK after single IV or SC RE104 HCl 2 mg/kg (Example 1)

CC(C)N(CCc1c[nH]c2cccc(O)c12)C(C)C [4-OH-DiPT, 3-(2-diisopropylamino-ethyl)-1H-indol-4-ol]
AUC(0-t) [1]: 1230 ng·h/mL | Cmax [1]: 542 ng/mL | half-life (in vivo [2]; iv, 1 mg/kg): 0.631 h | half-life (in vivo [2]; sc, 0.5 mg/kg): 0.95 h | mean terminal half-life (in vivo [2]; RE104 IV dosing): 0.63 h | mean terminal half-life (in vivo [2]; RE104 SC dosing): 0.95 h | fraction unbound [3]: 0.4 to 0.7 | fraction unbound [4]: 0.07 to 0.2 | share of the total peak area [5]: 4.42% | mean DEQ-High score (healthy females): ≤ 2 | Cmax ([6]; RE104 dose 5.5 mg SC (n = 6)): 18 ng/mL | Tmax ([6]; RE104 dose 5.5 mg SC (n = 6)): 1.12 h | half-life ([6]; RE104 dose 5.5 mg SC (n = 6)): 3.42 h | Cmax ([6]; RE104 dose 11 mg SC (n = 6)): 60 ng/mL | Tmax ([6]; RE104 dose 11 mg SC (n = 6)): 1.21 h | half-life ([6]; RE104 dose 11 mg SC (n = 6)): 3.55 h | Cmax ([6]; RE104 dose 22 mg SC (n = 6)): 77 ng/mL | Tmax ([6]; RE104 dose 22 mg SC (n = 6)): 1.42 h | half-life ([6]; RE104 dose 22 mg SC (n = 6)): 3.27 h | Cmax ([6]; RE104 dose 33 mg SC (n = 9)): 137 ng/mL | Tmax ([6]; RE104 dose 33 mg SC (n = 9)): 1.07 h | half-life ([6]; RE104 dose 33 mg SC (n = 9)): 2.79 h | Cmax ([6]; RE104 dose 38 mg SC (n = 6)): 124 ng/mL | Tmax ([6]; RE104 dose 38 mg SC (n = 6)): 1.08 h | half-life ([6]; RE104 dose 38 mg SC (n = 6)): 2.79 h | Cmax ([6]; RE104 dose 44 mg SC (n = 3)): 275 ng/mL | Tmax ([6]; RE104 dose 44 mg SC (n = 3)): 1.25 h | half-life ([6]; RE104 dose 44 mg SC (n = 3)): 3.76 h | AUC(0-t) (in vivo [7]): 103 ng·h/mL | Cmax (in vivo [7]): 21.4 ng/mL | Tmax (in vivo [7]): 4 h | solubility [8]: < 2000 µg/mL | onset of effect (mild physical awareness) (humans; 10 mg orally (Shulgin)): ≤ 1 h | recovery (humans; 20 mg oral dose (Shulgin)): ≤ 3 h | onset of effect (humans; 20 mg orally (Shulgin)): ≤ 15 min | metabolites formed [9]: primarily producing O-glucuronide and negligible amounts of other metabolites | share of total metabolites in plasma [10]: > 67% | IC50 ([11]; read-out: IC50 at 5-HT2A, agonist radioligand assay): 150 nM | Ki ([11]; read-out: binding Ki at the 5-HT2A receptor, radioligand inhibition binding, HEK-293 cells): 120 nM | IC50 [12]: 42 nM | AUC(0-t) [13]: 1010 ng·h/mL | Cmax [13]: 360 ng/mL | elimination half-life (t1/2) in plasma ([14]; RE104 HCl 2 mg/kg SC): 0.678 h | half-life ([14]; plasma, iv, 2 mg/kg): 0.426 h
